Reference: ChEMBL document CHEMBL1144258, “Topochemical model for prediction of anti-HIV activity of HEPT analogs” (Bioorg Med Chem Lett, 2005)

How the values were obtained:
[1] = test system: Human immunodeficiency virus 1; assay: Inhibitory activity against human immunodeficiency virus type 1 (inactive>0.1); type: functional, organism-based
[2] = test system: Human immunodeficiency virus 1; assay: Inhibitory activity against human immunodeficiency virus type 1; type: functional, organism-based

IC50 [1] | IC50 [2] [nM] | SMILES
Inactive | – | Cc1c(SC2CCCCC2)n(COCN2CCNCC2)c(=O)[nH]c1=O
Inactive | – | Cc1c(SC2CCCCN2)n(COCSc2ccncc2)c(=O)[nH]c1=O (stereo not drawn)
Inactive | – | Cc1c(SC2CCCCC2)n(COCN2CCOCC2)c(=O)[nH]c1=O
Inactive | – | Cc1c(SC2CCCCC2)n(COCBr)c(=O)[nH]c1=O
Inactive | – | Cc1c(Sc2ccccc2)n(COCc2cccs2)c(=O)[nH]c1=O
– | < 100 | CCc1c(Sc2cc(C)cc(C)c2)n(COCc2cccs2)c(=O)[nH]c1=O
– | < 100 | CCc1c(Sc2ccccc2)n(COCc2cccs2)c(=O)[nH]c1=O
Inactive | – | Cc1c(SC2CCCCC2)n(COCN(C(=O)c2ccccc2)C(=O)c2ccccc2)c(=O)[nH]c1=O
Inactive | – | Cc1c(Sc2ccccc2)n(COCc2ccc([N+](=O)[O-])s2)c(=O)[nH]c1=O
– | < 100 | CCc1c(Sc2cc(C)cc(C)c2)n(COCc2ccccc2)c(=O)[nH]c1=O
Inactive | – | Cc1c(SC2CCCCC2)n(COCSc2ccncc2)c(=O)[nH]c1=O
Inactive | – | Cc1c(SC2CCCCC2)n(COCN)c(=O)[nH]c1=O
Inactive | – | Cc1c(SC2CCCCC2)n(COCI)c(=O)[nH]c1=O
Inactive | – | Cc1c(Sc2ccccc2)n(COCc2cc3ccccc3o2)c(=O)[nH]c1=O
Inactive | – | Cc1c(SC2CCCCC2)n(COCNC(=O)c2ccccc2)c(=O)[nH]c1=O
– | < 100 | CCc1c(Sc2cc(C)cc(C)c2)n(COCc2ccco2)c(=O)[nH]c1=O
– | < 100 | CCc1c(Sc2ccccc2)n(COCc2ccco2)c(=O)[nH]c1=O

IC50 [1] | IC50 [2] [nM] | SMILES
Inactive | – | Cc1c(SC2CCCCC2)n(COCNC(=O)CNCP(=O)(O)O)c(=O)[nH]c1=O
Inactive | – | Cc1c(SC2CCCCC2)n(COCNC(=O)CCCl)c(=O)[nH]c1=O
Inactive | – | Cc1c(Sc2ccccc2)n(COCC2CCCCC2)c(=O)[nH]c1=O
Inactive | – | Cc1c(Sc2ccccc2)n(COCc2ccccc2)c(=O)[nH]c1=O
Inactive | – | Cc1c(SC2CCCCC2)n(COCN(CC#N)CC#N)c(=O)[nH]c1=O
Inactive | – | Cc1c(SC2CCCCN2)n(COCSc2ccccc2)c(=O)[nH]c1=O (stereo not drawn)
Inactive | – | Cc1c(Sc2ccccc2)n(COCc2ccco2)c(=O)[nH]c1=O
Inactive | – | Cc1c(SC2CCCCC2)n(COCNc2ccccc2)c(=O)[nH]c1=O
– | < 100 | CCc1c(Sc2ccccc2)n(COCc2cc3ccccc3o2)c(=O)[nH]c1=O
Inactive | – | Cc1c(SC2CCCCC2)n(COCN(c2ccccc2)c2ccccc2)c(=O)[nH]c1=O
Inactive | – | Cc1c(Sc2ccccc2)n(COCc2cccnc2)c(=O)[nH]c1=O
– | < 100 | CCc1c(Sc2ccccc2)n(COCc2ccccc2)c(=O)[nH]c1=O
Inactive | – | Cc1c(SC2CCCCN2)n(COCNc2ccccc2)c(=O)[nH]c1=O (stereo not drawn)
Inactive | – | CCc1c(Sc2ccccc2)n(COCc2ccc([N+](=O)[O-])s2)c(=O)[nH]c1=O
Inactive | – | Cc1c(SC2CCCCC2)n(COCNC(=O)CP(=O)(O)O)c(=O)[nH]c1=O
Inactive | – | Cc1c(SC2CCCCC2)n(COCSc2ccccc2)c(=O)[nH]c1=O
